Measured values from US9000184B2, “Cyclohexane-1,2′-naphthalene-1′,2″-imidazol compounds and their use as BACE inhibitors” (AstraZeneca AB, priority 2012, dated 2015).

What was measured:
[1] = tested on: sAPPβ release, SH-SY5Y cells; assay: sAPPβ release assay; type: cell-based; settings: 17 h incubation, MSD detection
Method: SH-SY5Y cells were cultured in DMEM/F-12 with Glutamax, 10% FCS and 1% non-essential amino acids and cryopreserved and stored at −140° C. at a concentration of 7.5-9.5×10^6 cells per vial. Thaw cells and seed at a conc. of around 10000 cells/well in DMEM/F-12 with Glutamax, 10% FCS and 1% non-essential amino acids to a 384-well tissue culture treated plate, […] cell susp/well. The cell plates were then incubated for 7-24 h at 37° C., 5% CO2. The cell medium was removed, followed by addition of 30 μL compound diluted in DMEM/F-12 with Glutamax, 10% FCS, 1% non-essential amino acids and 1% PeSt to a final conc. of 1% DMSO. The compounds were incubated with the cells for 17 h (overnight) at 37° C., 5% CO2. Meso Scale Discovery (MSD) plates were used for the detection of sAPPβ release. MSD sAPPβ plates were blocked in 1% BSA in Tris wash buffer (40 μL/well) for 1 h on shake at r.t. and washed 1 time in Tris wash buffer (40 μL/well). 20 μL of medium was transferred to the pre-blocked and washed MSD sAPPβ microplates, and the cell plates were further used in an ATP assay to measure cytotoxicity. The MSD plates were incubated with shaking at r.t. for 2 h and the media discarded. 10 μL detection antibody was added (1 nM) per well followed by incubation with shaking at r.t. for 2 h and then discarded. 40 μL Read Buffer was added per well and the plates were read in a SECTOR Imager.

human β-Secretase [2] = biological target: T1, human β-Secretase (Homo sapiens (Human), UniProt P56817); assay: TR-FRET assay; type: biochemical; settings: sBACE-Fc 2.7 μg/ml, substrate 100 nM, pH 4.5, 15 minutes at RT
Method: The β-secretase enzyme used in the TR-FRET is prepared as follows:
(§1) The cDNA for the soluble part of the human β-Secretase (AA 1-AA 460) was cloned using the ASP2-Fc10-1-IRES-GFP-neoK mammalian expression vector. The gene was fused to the Fc domain of IgG1 (affinity tag) and stably cloned into HEK 293 cells.
(§2) The enzyme (truncated form) was diluted to 6 μg/mL (stock 1.3 mg/mL) and the TruPoint BACE1 Substrate to 200 nM (stock 120 μM) in reaction buffer (NaAcetate, chaps, triton x-100, EDTA pH4.5). Enzyme and compound in dimethylsulphoxide (final DMSO concentration 5%) was mixed and pre-incubated for 10 minutes at RT. Substrate was then added and the reaction was incubated for 15 minutes at RT. The reaction was stopped with the addition of 0.35 vol Stop solution (NaAcetate, pH 9). The fluorescence of the product was measured on a Victor II plate reader with excitation wavelengths of 340-485 nm and emission wavelengths of 590-615 nm. […] The dimethylsulphoxide control, instead of test compound, defined the 100% activity level and 0% activity was defined by wells lacking enzyme (replaced with reaction buffer) or by a saturating dose of a known inhibitor, 2-amino-6-[3-(3-methoxyphenyl)phenyl]-3,6-dimethyl-5H-pyrimidin-4-one.

human β-Secretase [3] = biological target: T1, human β-Secretase; assay: Diluted TR-FRET assay; type: biochemical; settings: footnote a: diluted FRET assay, 50 times less enzyme, 6.5 h reaction time at r.t.; read-out: IC50 in TR-FRET assay (IC50 from the diluted FRET assay)
Method: as §1, §2
Compounds with a high affinity were further tested in a diluted TR-FRET assay, conditions as described above for the TR-FRET assay, but with 50 times less enzyme and a 6.5 h long reaction time at r.t. in the dark.

T1 sequence (P56817 22-460): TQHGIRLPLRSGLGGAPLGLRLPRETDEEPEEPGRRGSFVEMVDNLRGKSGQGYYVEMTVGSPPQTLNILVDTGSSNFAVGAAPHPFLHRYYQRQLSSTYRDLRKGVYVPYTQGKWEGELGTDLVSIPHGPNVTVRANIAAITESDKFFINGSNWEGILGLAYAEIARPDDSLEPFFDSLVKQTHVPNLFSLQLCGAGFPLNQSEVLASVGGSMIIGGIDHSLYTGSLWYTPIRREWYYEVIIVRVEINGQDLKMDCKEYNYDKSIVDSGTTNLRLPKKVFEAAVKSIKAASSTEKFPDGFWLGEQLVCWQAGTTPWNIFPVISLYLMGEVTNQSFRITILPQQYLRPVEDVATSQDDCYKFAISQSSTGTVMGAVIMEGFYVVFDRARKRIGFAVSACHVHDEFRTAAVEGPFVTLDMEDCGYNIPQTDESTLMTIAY

IC50 [1] | IC50 (human β-Secretase [2]) | IC50 (human β-Secretase [3]) | IC50 ([1]; Homo sapiens) | SMILES
78 nM | 411 nM |  |  | CO[C@H]1CC[C@@]2(CCc3ccc(Br)cc3C23N=C(C)C(N)=N3)CC1 (single isomer, unassigned; isomer 1) [5, isomer 1]
1 nM |  | 5 nM |  | COc1cc(C#N)cc(-c2ccc3c(c2)C2(N=C(C)C(N)=N2)[C@]2(CC3)CC[C@@H](OC)CC2)c1 (single isomer, unassigned; isomer 1) [6, isomer 1]
2.5 nM |  | 14 nM |  | CO[C@H]1CC[C@@]2(CCc3ccc(-c4cncc(Cl)c4)cc3C23N=C(C)C(N)=N3)CC1 (single isomer, unassigned; isomer 1) [7, isomer 1]
81 nM | 212 nM |  |  | CC#Cc1cncc(-c2ccc3c(c2)C2(N=C(C)C(N)=N2)[C@]2(CC3)CC[C@H](OC)CC2)c1 (single isomer, unassigned; isomer 1) [8, isomer 1]
3.1 nM |  | 5.7 nM |  | COC1CCC2(CCc3ccc(-c4cc(Cl)cc(C#N)c4)cc3C23N=C(C)C(N)=N3)CC1 (single isomer, unassigned; isomer 1) [10, isomer 1]
4.5 nM |  | 3.6 nM |  | CO[C@H]1CC[C@]2(CCc3ccc(-c4cc(Cl)cc(C#N)c4)cc3C23N=C(C)C(N)=N3)CC1 (single isomer, unassigned; isomer 1) [11, isomer 1]
 | 8920 nM |  |  | CO[C@H]1CC[C@]2(CCc3ccc(Br)cc3C23N=C(C)C(N)=N3)CC1 (single isomer, unassigned; isomer 2) [5, isomer 2]
80 nM | 587 nM |  |  | COc1cc(C#N)cc(-c2ccc3c(c2)C2(N=C(C)C(N)=N2)[C@]2(CC3)CC[C@H](OC)CC2)c1 (single isomer, unassigned; isomer 2) [6, isomer 2]
19 nM | 333 nM |  |  | CO[C@H]1CC[C@]2(CCc3ccc(-c4cncc(Cl)c4)cc3C23N=C(C)C(N)=N3)CC1 (single isomer, unassigned; isomer 2) [7, isomer 2]
2.4 nM | 19 nM |  |  | CC#Cc1cncc(-c2ccc3c(c2)C2(N=C(C)C(N)=N2)[C@]2(CC3)CC[C@@H](OC)CC2)c1 (single isomer, unassigned; isomer 2) [8, isomer 2]
92 nM | 392 nM |  |  | CO[C@H]1CC[C@@]2(CCc3ccc(-c4cc(Cl)cc(C#N)c4)cc3C23N=C(C)C(N)=N3)CC1 (single isomer, unassigned; isomer 2) [10, isomer 2]
 | > 5000 nM |  |  | CO[C@H]1CC[C@@]2(CCc3ccc(-c4cc(Cl)cc(C#N)c4)cc3[C@@]23N=C(C)C(N)=N3)CC1 (single isomer, unassigned; isomer 2) [11, isomer 2]
 | 79 nM |  | 23 nM | CC1=NC2(N=C1N)c1cc(-c3cc(F)cc(C#N)c3)ccc1CCC21CC1 (centres unmarked) [Example 2, 3-(4″-Amino-5″-methyl-3′,4′-dihydrodispiro[cyclopropane-1,2′-naphthalene-1′,2″-imidazol]-7′-yl)-5-fluorobenzonitrile]
 | 130 nM |  | 118 nM | CC1=NC2(N=C1N)c1cc(-c3cc(F)cc(F)c3)ccc1CCC21CC1 (centres unmarked) [Example 3, 7′-(3,5-Difluorophenyl)-5″-methyl-3′,4′-dihydrodispiro[cyclopropane-1,2′-naphthalene-1′,2″-imidazol]-4″-amine]
 |  |  | 11 nM | CC1=NC2(N=C1N)c1cc(-c3cncc(Cl)c3)ccc1CCC21CC1 (centres unmarked) [Example 4, 7′-(5-Chloropyridin-3-yl)-5″-methyl-3′,4′-dihydrodispiro[cyclopropane-1,2′-naphthalene-1′,2″-imidazol]-4″-amine]
 |  | 15 nM | 16 nM | CC1=NC2(N=C1N)c1cc(-c3cc(Cl)cc(C#N)c3)ccc1CCC21CC1 (centres unmarked) [Example 9, 3-(4″-Amino-5″-methyl-3′,4′-dihydrodispiro[cyclopropane-1,2′-naphthalene-1′,2″-imidazol]-7′-yl)-5-chlorobenzonitrile]
